For test [1], the system named is Klebsiella pneumoniae (DSM 681). The class given is cell-based. As to conditions: DSM 681, 24 h. From the text: Effect of peptide P18 (P18 sequence H-KWKLFKKIPKFLHLAKKF-NH2 (Bachem AG, Switzerland)) on Klebsiella pneumoniae (DSM 681) to study.
TSBY growth medium (Becton, Dickinson and Company, Sparks, USA) 17 g of pancreatin-degraded caseine 3 g of pancreatin-degraded soya 2.5 g of dextrose 5 g of sodium chloride 2.5 g of dipotassium phosphate 3 g of yeast extract (Becton, Dickinson and Company, Sparks, USA) make up to 1 liter, set pH 7
A shake culture containing TSBY medium was inoculated with K. pneumoniae and incubated with shaking at 37° C. and 200 rpm overnight.
The suspension was adjusted to an optical density measured at 600 nm of 0.1. A 96-well microtiter plate was filled with 95 μl per well of the K. pneumoniae suspension. Then a dilution series of the peptide with a final concentration in the wells between 0 and 1000 ppm was added. To this end, 5 μl per well of peptide solution with a concentration in the range from 0 ppm to 20 000 ppm were added to the K. pneumoniae suspension, so as to obtain final concentrations of the peptide in the wells in the range between 0 ppm and 1000 ppm.
The microtiter plate was incubated at 37° C., 600 rpm. The bacterial growth was assessed by measuring the optical density at 620 nm and observing it over 24 hours. The experiments were conducted at least in double determination and were independently repeated at least once.

The next test has as its system M. furfur DSM 6170. Kind of test: Comparison of the efficacy of P18 and AFPP (CFU). The class given is cell-based, Malassezia furfur. The text has this:
WO 00/32220 describes the effect of the antifungal polypeptide AFPP from Aspergillus giganteus on the growth of Malassezia furfur.
In order to compare the effect of P18 (SEQ ID NO. 3; sequence: KWKLFKKIPKFLHLAKKF-NH2 (Bachem. AG, Switzerland)) with the effect of AFPP, AFPP was provided from the culture supernatant of the A. giganteus strain CBS 526.65 (Organobalance, Berlin). The purification was effected according to Theis et al. (Theis T., Wedde M., Meyer V., Stahl U. (2003) The antifungal protein from Aspergillus giganteus causes membrane permeabilization. Antimicrob. Agents Chemother. 47:588-593; Theis T., Marx F., Salvenmoser W., Stahl U., Meyer V. (2005) New insights into the target site and mode of action of the antifungal protein (AFP) of Aspergillus giganteus. Res Microbiol. 156:47-56.)
After replacing the buffer and concentration, a 2% (w/w) AFPP solution in phosphate buffer (10 mM sodium phosphate, pH 7.5, 100 mM NaCl) was obtained.
The P18 concentrate was also present as a 2% (w/w) solution in phosphate buffer.
Growth medium: M472 Pityrosporum medium according to DSMZ (German Collection of Microorganisms and Cell Cultures, Braunschweig, Germany) 40 g of malt extract (Becton, Dickinson and Company, Sparks, USA) 20 g of ox bile (Merck, Darmstadt, Germany)
The growth test was effected as follows: a shake culture containing M472 Pityrosporum medium was inoculated with M. furfur DSM 6170 (DSMZ) and incubated with shaking at 30° C. and 200 rpm overnight.
For each test mixture, a 1.5 ml reaction vessel was filled with Pityrosporum medium and inoculated with the M. furfur overnight culture to give a start OD of 0.1, measured at 600 nm.
The growth of the following test mixtures was monitored: • M. furfur suspension and addition of 30 μl of phosphate buffer (in order to rule out any influence of the phosphate buffer on the effect of the active peptides at a final concentration of 0.1%) • M. furfur suspension and addition of 60 μl of phosphate buffer (in order to rule out any influence of the phosphate buffer on the effect of the active peptides at a final concentration of 0.2%) • M. furfur suspension and addition of 90 μl of phosphate buffer (in order to rule out any influence of the phosphate buffer on the effect of the active peptides at a final concentration of 0.3%) • M. furfur suspension with a final P18 concentration of 0.1% in the reaction volume • M. furfur suspension with a final P18 concentration of 0.2% in the reaction volume • M. furfur suspension with a final P18 concentration of 0.3% in the reaction volume • M. furfur suspension with a final AFPP concentration of 0.1% in the reaction volume • M. furfur suspension with a final AFPP concentration of 0.2% in the reaction volume • M. furfur suspension with a final AFPP concentration of 0.3% in the reaction volume
The reaction volume was 600 μl in each case. The growth of M. furfur in the test mixtures was observed over a period of 24 hours. For this purpose, the mixtures were diluted 1:10 in M472 medium after 5 minutes, 20 minutes and 24 hours, and then 10 μl were plated out. The CFU (colony forming units) were determined by counting after incubation at 30° C. for 6 days.
The experiments were effected in double determination and were independently repeated at least once.

With “H-KWKLFKKIPKFLHLAKKF-NH2 [P18, H-KWKLFKKIPKFLHLAKKF-NH2]”, the Minimum inhibitory concentration in test [1] stood at 125 ppm. The “Colony forming units after the incubation time specified” value in the test with M. furfur DSM 6170 (0.1%, 5 minutes) is 205 ± 192 CFU; in the test with M. furfur DSM 6170 (0.1%, 20 minutes) it was 48 ± 56 CFU; with M. furfur DSM 6170 (0.1%, 24 hours), 0 CFU; with M. furfur DSM 6170 (0.2%, 5 minutes), 56 ± 52 CFU; with M. furfur DSM 6170 (0.2%, 20 minutes) it was 5 ± 4 CFU; in the test on M. furfur DSM 6170 (0.2%, 24 hours), 0 CFU. Further, the “Colony forming units after the incubation time specified” value was determined as 18 ± 19 CFU in the test with M. furfur DSM 6170 (0.3%, 5 minutes); 1 ± 0 CFU in the test on M. furfur DSM 6170 (0.3%, 20 minutes); 0 CFU with M. furfur DSM 6170 (0.3%, 24 hours).

For the origin of these results see patent US20120065126A1, “Pharmaceutical Compositions Containing Antifungal Peptides” (BASF SE, priority 2009, published 2012).
